The source of these data is patent US7728039B2, “Biphenyl and Naphthyl-Phenyl Hydroxamic Acid Derivatives” (Sigma-Tau Industrie Farmaceutiche Riunite S.p.A., priority 2005, dated 2010).

Read-outs that look alike come from different tables or passages of the source.

In test [1] the test system is NB4 human promyelocytic leukaemia. The experiment in a line: Sulphorodamine B cytotoxicity test on NB4 cells. The test is classed as cell-based. The source says:
(§1) The cytotoxic effect of some biphenyl and phenylnaphthyl compounds bearing a hydroxamic acid group is reported herein. […] The chemical structures of the tested compounds of the invention and of the corresponding compounds bearing a carboxylic acid group are reported in FIG. 1. To test the effects of the compounds on cell growth, NB4 human promyelocytic leukaemia, NCI-H460 non-small cell carcinoma cells, H460/(R9A) (resistant to carboxylic acid-bearing compounds: ST1898, ST1926, ST1964), HCT-116 human colon carcinoma cells, IGROV-1 and IGROV-1/Pt (sensitive ovarian carcinoma and platinum-resistant ovarian carcinoma cells, respectively) were used. NB4 and NCI-H460 tumour cells were grown in RPMI 1640 containing 10% foetal bovine serum (GIBCO), HCT-116 tumour cells were grown in McCoy's 5A containing 10% foetal bovine serum (GIBCO), IGROV-1 and IGROV-1/Pt were grown in DMEM containing 10% foetal bovine serum (GIBCO),
(§2) Tumour cells were seeded in 96-well tissue culture plates at approximately 10% confluence and were allowed to attach and recover for at least 24 h. Varying concentrations of the drugs were then added to each well to calculate their IC50 value (the concentration which inhibits the 50% of cell survival). The plates were incubated for 24 h at 37° C. At the end of the treatment, for NB4 tumour cells in suspension, the procedure was performed as follows: medium culture was removed by centrifugation of the plates at 1600×g for 10 min and the surnatant was removed. 250 μl PBS were added, then the plates were centrifuged at 1600×g for 10 min, the surnatant was removed. 200 μl/well of medium culture RPMI 1640 containing 10% FCS were added and the plates were incubated at 37° C. for other 48 h. The plates were centrifuged again at 1600×g for 10 min, the medium culture was removed and 200 μl PBS and 50 μl of cold 80% TCA were added. The plates were incubated on ice for at least 1 h. TCA was removed, the plates were washed 3 times for immersion in distilled-water and dried on paper and at 40° C. for 5 min. Then 200 μl of 0.4% sulphorodamine B in 1% acetic acid were added. The plates were incubated at room temperature for other 30 min. Sulphorodamine B was removed, the plates were washed for immersion in 1% acetic acid for 3 times, then they were dried on paper and at 40° C. for 5 min. Then 200 μl Tris 10 mM were added, the plates were kept under stirring for 20 min. The survival cell was determined as optical density by a Multiskan spectrofluorimeter at 540 nm. For the tumour cells in adhesion (NCI-H460 and HCT-116), the procedure was as above mentioned, except that at the end of the treatment, the plates were washed by remotion of the surnatant and addition of PBS 3 times without centrifugation. Also the last day of the assay, the surnatant was removed without centrifugation.
(§3) The amount of cells killed was calculated as the percentage decrease in sulphorodamine B binding compared with control cultures. The IC50 values (the concentration which inhibits the 50% of cell survival) were calculated with the “ALLFIT” program.

Test [2] relates to IGROV-1 (sensitive ovarian carcinoma cells). The experiment in a line: Sulphorodamine B cytotoxicity test on IGROV-1 cells. The test is classed as cell-based. To be noted: read-out: IC50 ± SD, IGROV-1.
Text: as §1, §2, §3

For test [3], the system named is IGROV-1/Pt (platinum-resistant ovarian carcinoma cells). The experiment in a line: Sulphorodamine B cytotoxicity test on IGROV-1/Pt cells. The test is classed as cell-based. Particulars: read-out: IC50 ± SD, IGROV-1/Pt.
Text: as §1, §2, §3

In test [4] the test system is NCI-H460 non-small cell carcinoma cells. The experiment in a line: Sulphorodamine B cytotoxicity test on NCI-H460 cells. The test is classed as cell-based. Particulars: SRB, read-out: IC50 ± SD, NCI-H460. Here is the method:
The chemical structures of the tested compounds of the invention and of the corresponding compounds bearing a carboxylic acid group are reported in FIG. 1. […] NB4 and NCI-H460 tumour cells were grown in RPMI 1640 containing 10% foetal bovine serum (GIBCO), HCT-116 tumour cells were grown in McCoy's 5A containing 10% foetal bovine serum (GIBCO), IGROV-1 and IGROV-1/Pt were grown in DMEM containing 10% foetal bovine serum (GIBCO),
as §2, §3

Test [5] relates to HCT-116 human colon carcinoma cells. Kind of test: Sulphorodamine B cytotoxicity test on HCT-116 cells. It is filed as cell-based. Particulars: Table 2, SRB, read-out: IC50 ± SD, HCT-116.
Text: as §1, §2, §3

In test [6] the test system is NCI-H460 R9A tumour cells (H460/(R9A), resistant to carboxylic acid-bearing compounds). The experiment in a line: Sulphorodamine B cytotoxicity test on ST1926-resistant NCI-H460 R9A cells. To be noted: for overcoming of resistance on H460/R9A: H460/R9A versus sensitive NCI-H460, result in words; for RI (resistance index): IC50 on resistant tumour cell line/IC50 on sensitive tumour cell line (NCI-H460 R9A / NCI-H460); for IC50: Table 3, resistant NCI-H460 R9A, SRB, read-out: IC50 ± SD, NCI-H460 R9A. It is filed as cell-based.
Text: as §1, §2, §3
The resistant tumour cell line NCI H460 R9A was a clone selected for the resistance to ST1926 (Table 3). To obtain the resistant tumour cell line, the sensitive NCI-H460 tumour cells were treated with 2 μM ST1926 for 24 hours and maintained in drug-free medium for a recovering time of 7 days. Then, survived cells were cultured applying a continuous selective pressure of 2 μM (10×IC50) ST1926. Resistant NCI-H460 cells were subculture for 3-4 times before increasing ST1926 concentration to 4 μM (20×IC50). Survived cells were seeded in 96-well plates to isolate resistant cells clones and maintained in complete medium with 4 μM of ST1926. The tumour cell line was maintained at least for one week, before seeding for SRB cytotoxicity assay, in drug-free medium.
To evaluate the effect of the compound on survival cells, the sulphorodamine B test was used. […]

The test system of test [7] is NB4 promyelocytic leukaemia cells. Kind of test: Differentiation of NB4 tumour cells by nitroblue tetrazolium (NBT) reduction, with or without ATRA. It is filed as cell-based, human. Particulars: 3 days, NBT-reducing activity; for AC50: combined with suboptimal ATRA (5 nM); for Differentiation AC50: compound alone (without ATRA). The source says: Relevant aspects of the differentiation program set in motion by ATRA in APL cells can be reproduced in primary cultures of leukemic blasts and in the derived NB4 cell line, which is a unique model for the study of the pharmacologic activity of ATRA and derivatives. Pharmacological concentrations of ATRA arrest the growth of NB4 blasts and differentiate them into cells that resemble mature neutrophils. This is followed by a slow process of apoptosis. […] In particular, the differentiation of NB4 tumour cells induced by the compounds was determined by nitroblue tetrazolium (NBT) reduction. NB4 promyelocytic leukaemia cells were seeded at a density of 150000 cells/ml in RPMI 1640 medium containing 10% FCS. To measure the cytodifferentiating effect of the molecules, tumour cells were treated with the compounds at different concentrations starting from at least 0.4 μM to 0.01 μM, whereas to measure the enhancing action of the molecules of ATRA activity, NB4 cells were treated with increasing concentrations of the molecules in the presence or absence of ATRA at a suboptimal concentration (5 nM).
Tumour cells were incubated for 3 days at 37° C. without replacing the medium culture. To measure the prodifferentiative effect, 500,000 cells were collected, centrifuged and resuspended in 1 ml of RPMI 1640 medium containing 10% FCS, 1 mg/ml of nitroblue tetrazolium (NBT) and 100 ng of PMA (4-phorbol-12-myristate-13-acetate). The tumour cells resuspended were incubated at 37° C. for 60 min. At the end of the incubation, tumour cells were centrifuged and the pellet was resuspended in 1 ml of PBS containing Triton ×100 at 10%. The samples were sonicated and the absorbance was determined at 540 nm with a spectrophotometer. Differentiation of tumor cells as AC50 (activating concentration) was evaluated as the concentration of the compound giving 50% of the maximal induction of NBT-reducing activity with or without ATRA.

[8] abbreviates: Homo sapiens, NB-4, Table 4, NB4 tumour cells, compound alone, read-out: IC50 (μM ± SD).
Where [9] appears, read: Homo sapiens, NCI-H460, Table 2, NCI-H460.

Regarding `O=C(NO)c1ccc2cc(-c3ccc(O)c(C45CC6CC(CC(C6)C4)C5)c3)ccc2c1` [ST2142, 6-[3-1-(adamantyl)-4-hydroxyphenyl]-naphthalene-2-carboxylic acid N-hydroxyamide], the IC50 came to 2.4 ± 0.08 µM in test [1] (Table 4, NB4 tumour cells, compound alone, read-out: IC50 (μM ± SD)); 650 ± 100 nM in test [2] (Table 2, SRB); 1100 ± 30 nM in test [3] (Table 2, SRB); 1000 ± 60 nM in test [4] (Table 2, NCI-H460); 1000 ± 60 nM in test [4] (Table 3, sensitive NCI-H460); 2900 ± 200 nM in test [5]. Besides, the IC50 in test [6] worked out at 2200 ± 100 nM. In addition, in test [6], the “overcoming of resistance on H460/R9A” value is recorded as “completely overcame the resistance”. For the same compound, the “RI (resistance index)” value in test [6] turned out to be 2.2. The half-maximal activity concentration (AC50) in test [7] amounted to 310 nM. In addition, the “Differentiation AC50” value in test [7] is given as “no differentiation”.
As to `O=C(/C=C/c1ccc(-c2ccc(O)c(C34CC5CC(CC(C5)C3)C4)c2)cc1)NO` [ST2992, E-3-[3′-(1-adamantyl)-4′-hydroxy-biphenyl-4-yl]-N-hydroxy-acrylamide], the IC50 in test [1] (setting [8]) came to 0.68 ± 0.07 µM; in test [2] (Homo sapiens, Table 2, SRB), 770 ± 50 nM; in test [3] (Homo sapiens, Table 2, SRB), 550 ± 50 nM; in test [4] (setting [9]) it was 1200 ± 30 nM; in test [4] (Homo sapiens, NCI-H460, Table 3, sensitive NCI-H460) it was 1200 ± 30 nM; in test [5] (Homo sapiens) it was 3000 ± 200 nM. In test [6] (Homo sapiens), the IC50 was determined as 1200 ± 100 nM. In addition, the “overcoming of resistance on H460/R9A” value in test [6] is on record as “completely overcame the resistance”. For the same compound, the “RI (resistance index)” value in test [6] came out at 1.0. Also, the AC50 in test [7] (Homo sapiens, 72 h) was determined as 190 nM. Further, the “Differentiation AC50” value in test [7] is given as “no differentiation”.
As for `O=C(/C=C/c1ccc(-c2ccc(O)cc2)cc1)NO` [ST2782, E-3-(4′-hydroxy-biphenyl-4-yl)-N-hydroxy-acrylamide], the IC50 in test [1] (Homo sapiens, NB-4, Table 1, NB4, 24 h treatment, 48 h recovery, SRB, read-out: IC50 ± SD, NB4) is 2.3 ± 0.02 µM; in test [1] (setting [8]) it was 2.3 ± 0.02 µM; in test [2] (Homo sapiens, Table 1, SRB), 8800 ± 3000 nM; in test [3] (Homo sapiens, Table 1, SRB) it was 7700 ± 1600 nM; in test [4] (setting [9]), 6000 ± 900 nM; in test [5] (Homo sapiens), 6700 ± 700 nM. Moreover, the IC50 in test [6] (Homo sapiens) was 1800 ± 160 nM. Moreover, the “overcoming of resistance on H460/R9A” value in test [6] is “the same characteristic are retained”. Also, the AC50 in test [7] (Homo sapiens, 72 h) stood at 2470 nM. In test [7], the “Differentiation AC50” value is reported as “no differentiation”.

Broadly, the AC50 is the concentration at which the activity in the assay is half-maximal.
